Source: patent US10213429B2, “Imidazo-pyrazinyl derivatives useful as soluble guanylate cyclase activators” (Merck Sharp & Dohme Corp., priority 2015, dated 2019)

Target: T1, sGC α1/β1 heterodimer (Homo sapiens, UniProt Q02108+Q02153)
T1 construct: expressed in transfected cells; host or cells: CHO-K1 (clone #7, CHO-K1/sGC)
T1 sequence (Q02108 1-690): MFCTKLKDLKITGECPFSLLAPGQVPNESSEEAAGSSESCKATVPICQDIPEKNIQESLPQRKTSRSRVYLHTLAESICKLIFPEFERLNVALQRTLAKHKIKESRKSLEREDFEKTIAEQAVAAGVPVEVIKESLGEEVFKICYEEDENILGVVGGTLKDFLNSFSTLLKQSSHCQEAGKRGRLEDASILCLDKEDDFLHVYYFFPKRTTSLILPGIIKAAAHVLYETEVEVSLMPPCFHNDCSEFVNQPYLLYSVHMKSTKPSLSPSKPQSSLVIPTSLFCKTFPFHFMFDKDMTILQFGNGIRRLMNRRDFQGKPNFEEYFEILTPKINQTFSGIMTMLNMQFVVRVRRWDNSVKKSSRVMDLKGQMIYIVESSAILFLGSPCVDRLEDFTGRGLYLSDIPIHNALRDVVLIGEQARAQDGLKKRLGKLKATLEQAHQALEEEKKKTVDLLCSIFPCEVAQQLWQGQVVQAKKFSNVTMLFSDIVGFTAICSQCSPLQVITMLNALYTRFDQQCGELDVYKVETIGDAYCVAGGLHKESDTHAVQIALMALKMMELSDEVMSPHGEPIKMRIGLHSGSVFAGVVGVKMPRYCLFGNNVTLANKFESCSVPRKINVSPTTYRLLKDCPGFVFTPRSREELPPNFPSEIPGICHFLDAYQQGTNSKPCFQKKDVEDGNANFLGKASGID
T1 sequence (Q02153 1-619): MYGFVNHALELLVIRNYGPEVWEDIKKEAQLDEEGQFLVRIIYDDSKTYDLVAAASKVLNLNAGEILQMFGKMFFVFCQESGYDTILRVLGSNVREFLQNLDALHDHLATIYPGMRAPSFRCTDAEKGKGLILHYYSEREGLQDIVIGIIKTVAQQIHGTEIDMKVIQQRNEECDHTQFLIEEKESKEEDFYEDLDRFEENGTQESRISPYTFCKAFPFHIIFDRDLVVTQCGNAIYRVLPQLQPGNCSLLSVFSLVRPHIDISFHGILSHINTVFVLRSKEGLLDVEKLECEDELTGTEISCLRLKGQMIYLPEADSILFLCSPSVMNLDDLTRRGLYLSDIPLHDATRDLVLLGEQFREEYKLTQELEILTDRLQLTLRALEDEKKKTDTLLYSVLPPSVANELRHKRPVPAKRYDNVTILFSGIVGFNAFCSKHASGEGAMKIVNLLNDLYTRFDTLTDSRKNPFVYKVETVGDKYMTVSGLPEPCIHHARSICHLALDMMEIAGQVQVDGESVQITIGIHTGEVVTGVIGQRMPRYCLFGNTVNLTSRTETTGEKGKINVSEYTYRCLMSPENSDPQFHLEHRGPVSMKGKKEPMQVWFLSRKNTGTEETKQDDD
Assay: Cell-Based sGC Functional Assay (CASA Assay), cGMP by HTRF in CHO-K1/sGC cells
Details: for Emax: CHO-K1, percent activation relative to maximum cGMP production of Compound A (= 100%), read-out: % Act.; for EC50: cGMP production, 1 hr at 37° C., 4P fit, presence or absence of 1 μM DETA-NO not given, read-out: IP (nM) (inflection point)
Text: Biological Assay 1: Cell-Based sGC Functional Assay (CASA Assay)
sGC is a heme-containing enzyme that converts GTP to secondary messenger cGMP. Increases in cGMP levels affect several physiological processes including vasorelaxation through multiple downstream pathways. […] Heme-dependent activators (HDAs) preferentially activate sGC containing a ferrous heme group. To determine the effect of sGC activators on enzyme activity, the CASA assay was developed to monitor the generation of cGMP in a cell line that stably expresses the heterodimeric sGC protein.
A CHO-K1 cell line stably expressing the sGC α1/β1 heterodimer was generated using a standard transfection protocol. CHO-K1 cells were transfected with plasmids pIREShyghsGCα1 and pIRESneo-hsGCβ1 simultaneously using FUGENE reagent. Clones that stably express both subunits were selected with hygromycin and neomycin for ˜2 weeks. Clone #7 was chosen for the assay and was designated CHO-K1/sGC. CHO-K1/sGC cells were maintained in F-K12 medium containing 10% heat-inactivated Fetal Bovine Serum (FBS), 100 μg/mL penicillin/streptomycin, 0.5 mg/mL hygromycin and 0.25 mg/mL G418. The cells were then cryopreserved in LN2. On the day of the assay, cells were thawed and resuspended in EBSS Assay Buffer (Sigma, E3024) supplemented with 5 mM MgCl2, 10 mM HEPES (4-(2-hydroxyethyl)piperazine-1-ethanesulfonic acid) and 0.05% BSA (bovine serum albumin) (EAB) and cell density was then adjusted to 4×10^5/mL with EAB. IBMX (3-isobutyl-1-methylxanthin, 0.5 mM) was added to inhibit degradation of cGMP. Compounds were diluted from DMSO stock solutions and added to the assay at a final DMSO concentration of 2.5%. Cells were incubated with compounds in the presence and absence of 1 μM of Diethylenetriamine/nitric oxide adduct (DETA-NO; Sigma, 17018) for 1 hr at 37° C. At the end of the incubation period, the reaction was terminated and the cells were lysed with the detection reagents from Cisbio Kits. The level of intracellular cGMP was determined using an HTRF-based assay kit (CisBio, 62GM2PEC), which detects the displacement of a fluorescence labeled cGMP from its specific antibody. The cGMP produced by test compounds was directly compared to the maximum cGMP production (this value was set to equal 100% activation.) of the published sGC-HDA Compound A:
[drawing 175] (Example 1 in WO 2010/065275, published Jun. 10, 2010). The test compounds' activities were then expressed as a percentage of Compound A, the standard in every experiment. This percent activation was calculated either in the presence or absence of DETA-NO which was then plotted. IP and maximum fold induction was derived using ADA analysis software for 4P fit.
The compounds in the Examples of the instant invention had inflection points (IP) less than or equal to 10 μM and most less than or equal to about 1 μM.

SMILES | Emax [%] | EC50 [nM]
CC1(c2ccc(F)cn2)C(=O)Nc2nc(-c3cn4ccnc4c(CCC(F)(F)C(F)(F)F)n3)nc(C3CC3)c21 (centres unmarked) [Example 71B, 4-Cyclopropyl-5-(5-fluoropyridin-2-yl)-5-methyl-2-(8-(3,3,4,4,4-pentafluorobutyl)imidazo[1,2-a]pyrazin-6-yl)-5H-pyrrolo[2,3-d]pyrimidin-6(7H)-one] | 135 | 23
CCCCc1nc(-c2nc3c(c(C4CC4)n2)C(C)(c2ccc(F)cn2)C(=O)N3)cn2ccnc12 (centres unmarked) [Example 72B, 2-(8-butylimidazo[1,2-a]pyrazin-6-yl)-4-cyclopropyl-5-(5-fluoropyridin-2-yl)-5-methyl-5H-pyrrolo[2,3-d]pyrimidin-6(7H)-one] | 179 | 81
CC1(c2ccc(F)cn2)C(=O)Nc2nc(-c3cn4ccnc4c(CCCC(F)(F)F)n3)nc(C3CC3)c21 (centres unmarked) [Example 73B, 4-cyclopropyl-5-(5-fluoropyridin-2-yl)-5-methyl-2-(8-(4,4,4-trifluorobutyl)imidazo[1,2-a]pyrazin-6-yl)-5H-pyrrolo[2,3-d]pyrimidin-6(7H)-one] | 125 | 18
CC1(c2ccc(Cl)cc2)C(=O)Nc2nc(-c3cn4ccnc4c(CCC(F)(F)F)n3)nc(C3CC3)c21 (centres unmarked) [Example 74A, 5-(4-chlorophenyl)-4-cyclopropyl-5-methyl-2-(8-(3,3,3-trifluoropropyl)imidazo[1,2-a]pyrazin-6-yl)-5H-pyrrolo[2,3-d]pyrimidin-6(7H)-one] | 165 | 124
CC1(c2ccc(F)cc2)C(=O)Nc2nc(-c3cn4ccnc4c(CCC(F)(F)C(F)(F)F)n3)nc(C3CC3)c21 (centres unmarked) [Example 75A, 4-cyclopropyl-5-(4-fluorophenyl)-5-methyl-2-(8-(3,3,4,4,4-pentafluorobutyl)imidazo [1,2-a]pyrazin-6-yl)-5H-pyrrolo[2,3-d]pyrimidin-6(7H)-one] | 166 | 72
CCc1nc(-c2cn3ccnc3c(CCC(F)(F)C(F)(F)F)n2)nc2c1C(C)(c1ccc(F)cc1)C(=O)N2 (centres unmarked) [Example 76A, 4-ethyl-5-(4-fluorophenyl)-5-methyl-2-(8-(3,3,4,4,4-pentafluorobutyl)imidazo [1,2-a]pyrazin-6-yl)-5H-pyrrolo[2,3-d]pyrimidin-6(7H)-one] | 130 | 95
CCCCc1nc(-c2nc(O)c3c(n2)NC(=O)C3(C)c2ccc(F)cn2)cn2ccnc12 (centres unmarked) [Example 83B, 2-(8-butylimidazo[1,2-a]pyrazin-6-yl)-5-(5-fluoropyridin-2-yl)-4-hydroxy-5-methyl-5H-pyrrolo[2,3-d]pyrimidin-6(7H)-one] | 109 | 234
CC1(c2ccc(Cl)cc2)C(=O)Nc2nc(-c3cn4ccnc4cn3)nc(-c3ccccc3)c21 (centres unmarked) [Example 84A, 5-(4-Chlorophenyl)-2-(imidazo[1,2-a]pyrazin-6-yl)-5-methyl-4-phenyl-5H-pyrrolo[2,3-d]pyrimidin-6(7H)-one] | 127 | 105
CC1(c2ccc(F)cc2)C(=O)Nc2nc(-c3cn4ccnc4c(CCC(F)(F)C(F)(F)F)n3)nc(C#N)c21 (centres unmarked) [Example 85A, 5-(4-Fluorophenyl)-5-methyl-6-oxo-2-(8-(3,3,4,4,4-pentafluorobutyl)imidazo[1,2-a]pyrazin-6-yl)-6,7-dihydro-5H-pyrrolo[2,3-d]pyrimidine-4-carbonitrile] | 97 | 257
CC1(c2ccc(Cl)cn2)C(=O)Nc2nc(-c3cn4c(N)cnc4c(CCC(F)(F)C(F)(F)F)n3)ncc21 (centres unmarked) [Example 87A, 2-(3-Amino-8-(3,3,4,4,4-pentafluorobutyl)imidazo[1,2-a]pyrazin-6-yl)-5-(5-chloropyridin-2-yl)-5-methyl-5H-pyrrolo[2,3-d]pyrimidin-6(7H)-one] | 130 | 316
COCCOc1nc(-c2cn3ccnc3c(CCC(F)(F)C(F)(F)F)n2)nc2c1C(C)(c1ccc(F)cc1)C(=O)N2 (centres unmarked) [Example 88A, 5-(4-Fluorophenyl)-4-(2-methoxyethoxy)-5-methyl-2-(8-(3,3,4,4,4-pentafluorobutyl)imidazo[1,2-a]pyrazin-6-yl)-5H-pyrrolo[2,3-d]pyrimidin-6(7H)-one] | 100 | 38

Other lines, results leading:

Emax [%] | EC50 [nM] | SMILES
104 | 401 | CC1(c2ccc(Cl)cc2)C(=O)Nc2nc(-c3cn4ccnc4c(CCC(F)(F)F)n3)ncc21 (centres unmarked) [Example 61A, 5-(4-chlorophenyl)-5-methyl-2-(8-(3,3,3-trifluoropropyl)imidazo[1,2-a]pyrazin-6-yl)-5H-pyrrolo[2,3-d]pyrimidin-6(7H)-one]
107 | 10 | CC1(c2ccc(F)cc2)C(=O)Nc2nc(-c3cn4ccnc4c(CC4CCC4)n3)ncc21 (centres unmarked) [Example 63A, 2-(8-(cyclobutylmethyl)imidazo[1,2-a]pyrazin-6-yl)-5-(4-fluorophenyl)-5-methyl-5H-pyrrolo[2,3-d]pyrimidin-6(7H)-one]
117 | 170 | Cc1nc(-c2cn3ccnc3c(CCC(F)(F)C(F)(F)F)n2)nc2c1C(C)(c1ccc(F)cc1)C(=O)N2 (centres unmarked) [Example 77A, 5-(4-fluorophenyl)-4,5-dimethyl-2-(8-(3,3,4,4,4-pentafluorobutyl)imidazo [1,2-a]pyrazin-6-yl)-5H-pyrrolo[2,3-d]pyrimidin-6(7H)-one]
100 | 133 | CCCCc1nc(-c2nc(O)c3c(n2)NC(=O)C3(C)c2ccc(F)cc2)cn2ccnc12 (centres unmarked) [Example 79A, 2-(8-Butylimidazo[1,2-a]pyrazin-6-yl)-5-(4-fluorophenyl)-4-hydroxy-5-methyl-5H-pyrrolo[2,3-d]pyrimidin-6(7H)-one]
111 | 122 | CC1(c2ccc(F)cc2)C(=O)Nc2nc(-c3cn4ccnc4c(Cc4ccc(F)cc4)n3)ncc21 (centres unmarked) [Example 80A, 2-(8-(4-fluorobenzyl)imidazo[1,2-a]pyrazin-6-yl)-5-(4-fluorophenyl)-5-methyl-5H-pyrrolo[2,3-d]pyrimidin-6(7H)-one]
